This is an account of results in US8829029B2, “Dual modulators of 5HT2A and D3 receptors” (Hoffmann-La Roche Inc., priority 2008, dated 2014).

In experiment [1] the target is human 5-HT2A serotonin receptor (Homo sapiens (Human), UniProt P28223). As to the kind of experiment: Radioligand binding ([3H]-ketanserin) to cloned human 5-HT2A receptor expressed in HEK-293 EBNA cells. The settings on record: membranes of transfected HEK-293 EBNA cells, 1.1 nM [3H]-ketanserin, 1 h at RT. On the procedure: The ability of the compounds to bind to the 5-HT2A, D3 and D2 receptors was determined using radioligand binding to cloned receptors selectively expressed in HEK-293 EBNA cells.
(§1) HEK-293 EBNA cells were transiently transfected with expression plasmids encoding for the human D2 or D3 dopamine- or for the human 5-HT2A serotonin receptor, respectively. The cells were harvested 48 h post-transfection, washed three times with cold PBS and stored at −80° C. prior to use. The pellet was suspended in cold 50 mM Tris-HCl buffer containing 10 mM EDTA (pH 7.4) and homogenized with a Polytron (Kinematica AG, Basel, Switzerland) for 20-30 sec at 12,000 rpm. After centrifugation at 48,000×g for 30 min at 4° C., the pellet was resuspended in cold 10 mM Tris-HCl buffer containing 0.1 mM EDTA (pH 7.4), homogenized, and centrifuged as above. This pellet was further resuspended in a smaller volume of ice cold 10 mM Tris-HCl buffer containing 0.1 mM EDTA (pH 7.4) and homogenized with a Polytron for 20-30 sec at 12,000 rpm. The protein content of this homogenate was determined with the Bio-Rad (Bradford) Protein Assay (Biorad Laboratories GmbH, München, Germany) according to the instructions of the manufacturer using gamma globulin as the standard. This homogenate was stored at −80° C. in aliquots and thawed immediately prior to use.
Aliquots of membrane preparations were thawed at RT, resuspended in assay buffer (D2, D3: 50 mM Tris-HCl, 120 mM NaCl, 5 mM MgCl2, 1 mM EDTA, 5 mM KCl, 1.5 mM CaCl2, pH=7.4; 5-HT2A: 50 mM Tris-HCl, 10 mM MgCl2, 1 mM EGTA, pH=7.4), homogenized with a Polytron for 20-30 sec at 12,000 rpm and adjusted to a final concentration of approximately 7.5 μg protein/well (D2, D3) and 15 μg protein/well (5-HT2A), respectively.
(§2) The binding affinity (Ki) of the compounds was determined using radioligand binding. Membranes were incubated in a total volume of 200 μl with a fixed concentration of radioligand (final concentration approximately 0.7 nM [^3H]-spiperone for D2, 0.5 nM [^3H]-spiperone for D3, and 1.1 nM [^3H]-ketanserin for 5-HT2A) and ten concentrations of test compound in ranging between 10 μM-0.1 nM for 1 h at RT. At the end of the incubation, the reaction mixtures were filtered on to unifilter 96-well white microplates with bonded GF/C filters (Packard BioScience, Zürich, Switzerland; preincubated for 1 h in 0.1% polyethylenimine (PEI) in assay buffer) with a Filtermate 196 harvester (Packard BioScience) and washed 3 times with cold assay buffer. The nonspecific binding was determined with equally composed reaction mixtures in the presence of 10 μM unlabelled spiperone. Per well 45 μl of Microscint 40 (Perkin Elmer, Schwerzenbach, Switzerland) was added, plates for sealed, shaken for 20 min and counted for 3 min on a Topcount Microplate Scintillation Counter (Canberra Packard SA, Zürich, Switzerland) with quenching correction.
(§3) The CPM value for each duplicate of a concentration of competing compound was averaged (y1), then the % specific binding was calculated according to the equation (((y1−non-specific)/(total binding−non-specific))×100). Graphs were plotted with the % specific binding using XLfit, a curve fitting program that iteratively plots the data using Levenburg Marquardt algorithm. The single site competition analysis equation used was y=A+((B−A)/(1+((x/C)^D))), where y is the % specific binding, A is the minimum y, B is the maximum y, C is the IC50, x is the log10 of the concentration of the competing compound and D is the slope of the curve (the Hill Coefficient). From these curves the IC50 (inhibition concentration at which 50% specific binding of the radioligand was displaced) and Hill coefficient were determined. The affinity constant (Ki) was calculated using the Cheng-Prusoff equation Ki=(IC50/1+([L]/Kd), where [L] is the concentration of radioligand and Kd is the dissociation constant of the radioligand at the receptor as determined by the saturation isotherm.

Experiment [2] addresses human D3 dopamine receptor (Homo sapiens (Human), UniProt P35462). As to the kind of experiment: Radioligand binding ([3H]-spiperone) to cloned human D3 receptor expressed in HEK-293 EBNA cells. As to conditions: membranes of transfected HEK-293 EBNA cells, 0.5 nM [3H]-spiperone, 1 h at RT. On the procedure:
as §1, with “The pellet was suspended in cold 50 mM Tris-HCl buffer containing 10 mM EDTA (pH 7.4) and homogenized with a Polytron (Kinematica AG, Basel, Switzerland) for 20-30 sec at 12,000 rpm.” left out, “This pellet was further resuspended in a smaller volume of ice cold 10 mM Tris-HCl buffer containing 0.1 mM EDTA (pH 7.4) and homogenized with a Polytron for 20-30 sec at 12,000 rpm.” left out
as §2, §3

human D3 dopamine receptor, sequence (P35462 whole entry): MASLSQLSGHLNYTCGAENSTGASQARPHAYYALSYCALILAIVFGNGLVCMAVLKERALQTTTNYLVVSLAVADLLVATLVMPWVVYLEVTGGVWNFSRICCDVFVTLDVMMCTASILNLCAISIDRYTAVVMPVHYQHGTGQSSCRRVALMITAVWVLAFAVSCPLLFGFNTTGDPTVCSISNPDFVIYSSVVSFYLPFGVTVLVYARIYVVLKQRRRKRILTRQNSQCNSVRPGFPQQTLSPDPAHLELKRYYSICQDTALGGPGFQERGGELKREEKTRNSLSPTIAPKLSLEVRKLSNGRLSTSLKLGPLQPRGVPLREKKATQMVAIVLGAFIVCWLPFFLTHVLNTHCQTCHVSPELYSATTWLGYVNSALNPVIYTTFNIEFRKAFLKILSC

`O=C(N[C@H]1CC[C@H](CCN2CCC(c3noc4cc(Cl)ccc34)CC2)CC1)C(O)C(F)(F)F` (stereo partly drawn) [Example 33, N-trans-(4-{2-[4-(6-Chloro-benzo[d]isoxazol-3-yl)-piperidin-1-yl]-ethyl}-cyclohexyl)-3,3,3-trifluoro-2-hydroxy-propionamide]: the Ki in experiment [1] came to 21.9 nM; in experiment [2], 11 nM.
The corresponding values for `O=C(CC1CCC2(CC1)OCCO2)N[C@H]1CC[C@H](CCN2CCC(c3noc4cc(Cl)ccc34)CC2)CC1` [Example 36, N-trans (4-{2-[4-(6-Chloro-benzo[d]isoxazol-3-yl)-piperidin-1-yl]-ethyl}-cyclohexyl)-2-(1,4-dioxa-spiro[4.5]dec-8-yl)-acetamide] are 8.31 nM and 12.2 nM.
The corresponding values for `COC(CC(=O)N[C@H]1CC[C@H](CCN2CCC(c3noc4cc(Cl)ccc34)CC2)CC1)OC` [Example 37, N-trans-(4-{2-[4-(6-Chloro-benzo[d]isoxazol-3-yl)-piperidin-1-yl]-ethyl}-cyclohexyl)-3,3-dimethoxy-propionamide] are 13.7 nM and 9.03 nM.
The corresponding values for `O=C(CC1CCCO1)N[C@H]1CC[C@H](CCN2CCC(c3noc4cc(Cl)ccc34)CC2)CC1` (stereo partly drawn) [Example 38, N-trans-(4-{2-[4-(6-Chloro-benzo[d]isoxazol-3-yl)-piperidin-1-yl]-ethyl}-cyclohexyl)-2-(tetrahydro-furan-2-yl)-acetamide] are 13 nM and 9 nM.
For the compound `C[C@@H](O)CC(=O)N[C@H]1CC[C@H](CCN2CCC(c3noc4cc(Cl)ccc34)CC2)CC1` [Example 39, (R)-N-trans (4-{2-[4-(6-Chloro-benzo[d]isoxazol-3-yl)-piperidin-1-yl]-ethyl}-cyclohexyl)-3-hydroxy-butyramide], the values for the Ki in experiment [1] and in experiment [2] were 13 nM and 17 nM, respectively.
Take `CC1(C)OC[C@H](CC(=O)N[C@H]2CC[C@H](CCN3CCC(c4noc5cc(Cl)ccc45)CC3)CC2)O1` [Example 40, N-trans (4-{2-[4-(6-Chloro-benzo[d]isoxazol-3-yl)-piperidin-1-yl]-ethyl}-cyclohexyl)-2-((S)-2,2-dimethyl-[1,3]dioxolan-4-yl)-acetamide]: the Ki in experiment [1] came out at 25 nM; in experiment [2], 6 nM.
The corresponding values for `CO[C@H]1CC[C@H](CC(=O)N[C@H]2CC[C@H](CCN3CCC(c4noc5cc(Cl)ccc45)CC3)CC2)C1` [Example 41, N-trans (4-{2-[4-(6-Chloro-benzo[d]isoxazol-3-yl)-piperidin-1-yl]-ethyl}-cyclohexyl)-2-((1S,3S)-3-methoxy-cyclopentyl)-acetamide] are 14 nM and 10 nM.
In the case of `COC1(C)CCC(CC(=O)N[C@H]2CC[C@H](CCN3CCC(c4noc5cc(Cl)ccc45)CC3)CC2)CC1` (stereo partly drawn) [Example 42, N-trans(4-{2-[4-(6-Chloro-benzo[d]isoxazol-3-yl)-piperidin-1-yl]-ethyl}-cyclohexyl)-2-(4-methoxy-4-methyl-cyclohexyl)-acetamide], the Ki in experiment [1] came out at 19 nM; in experiment [2] it was 8 nM.
The corresponding values for `CO[C@]1(C)CC[C@@H](CC(=O)N[C@H]2CC[C@H](CCN3CCC(c4noc5cc(Cl)ccc45)CC3)CC2)CC1` [Example 42A, N-trans(4-{2-[4-(6-Chloro-benzo[d]isoxazol-3-yl)-piperidin-1-yl]-ethyl}-cyclohexyl)-2-(4-trans-methoxy-4-methyl-cyclohexyl)-acetamide] are 16 nM and 6 nM.
On the same counts, the results for `CO[C@]1(C)CC[C@H](CC(=O)N[C@H]2CC[C@H](CCN3CCC(c4noc5cc(Cl)ccc45)CC3)CC2)CC1` [Example 42B, N-trans(4-{2-[4-(6-Chloro-benzo[d]isoxazol-3-yl)-piperidin-1-yl]-ethyl}-cyclohexyl)-2-(4-cis-methoxy-4-methyl-cyclohexyl)-acetamide] are 14 nM and 4 nM.
Take `COC(C)CC(=O)N[C@H]1CC[C@H](CCN2CCC(c3noc4cc(Cl)ccc34)CC2)CC1` (stereo partly drawn) [Example 43, N-trans(4-{2-[4-(6-Chloro-benzo[d]isoxazol-3-yl)-piperidin-1-yl]-ethyl}-cyclohexyl)-3-methoxy-butyramide]: the Ki in experiment [1] came to 13 nM; in experiment [2], 10 nM.
For `CO[C@H](C)CC(=O)N[C@H]1CC[C@H](CCN2CCC(c3noc4cc(Cl)ccc34)CC2)CC1` [Example 43A, (R)—N-trans(4-{2-[4-(6-Chloro-benzo[d]isoxazol-3-yl)-piperidin-1-yl]-ethyl}-cyclohexyl)-3-methoxy-butyramide], the Ki in experiment [1] came out at 16 nM; in experiment [2] it was 15 nM.
With `CO[C@@H](C)CC(=O)N[C@H]1CC[C@H](CCN2CCC(c3noc4cc(Cl)ccc34)CC2)CC1` [Example 43B, (S)—N-(4-{2-[4-(6-Chloro-benzo[d]isoxazol-3-yl)-piperidin-1-yl]-ethyl}-cyclohexyl)-3-methoxy-butyramide], the Ki in experiment [1] worked out at 16 nM; in experiment [2], 6 nM.
Take `COC[C@H]1CC[C@H](CC(=O)N[C@H]2CC[C@H](CCN3CCC(c4noc5cc(Cl)ccc45)CC3)CC2)CC1` [Example 44, N-trans-(4-{2-[4-(6-Chloro-benzo[d]isoxazol-3-yl)-piperidin-1-yl]-ethyl}-cyclohexyl)-2-trans (4-methoxymethyl-cyclohexyl)-acetamide]: the figures for the Ki in experiment [1] and in experiment [2] were 19 nM and 9 nM, respectively.
With `CC1(O)CCC(CC(=O)N[C@H]2CC[C@H](CCN3CCC(c4noc5cc(Cl)ccc45)CC3)CC2)CC1` (stereo partly drawn) [Example 45, N-trans(4-{2-[4-(6-Chloro-benzo[d]isoxazol-3-yl)-piperidin-1-yl]-ethyl}-cyclohexyl)-2-(4-hydroxy-4-methyl-cyclohexyl)-acetamide], the Ki in experiment [1] amounted to 15 nM; in experiment [2], 7 nM.
On the same counts, the results for `CC(=O)N[C@H]1CC[C@H](CCN2CCC(c3noc4cc(Cl)ccc34)CC2)CC1` [Example 46, N-trans(4-{2-[4-(6-Chloro-benzo[d]isoxazol-3-yl)-piperidin-1-yl]-ethyl}-cyclohexyl)-acetamide] are 23.7 nM and 8.19 nM.
The corresponding values for `CCS(=O)(=O)N[C@H]1CC[C@H](CCN2CCC(c3noc4cc(F)ccc34)CC2)CC1` [Example 47, Ethanesulfonic acid (4-trans {2-[4-(6-fluoro-benzo[d]isoxazol-3-yl)-piperidin-1-yl]-ethyl}-cyclohexyl)-amide] are 1.66 nM and 5.85 nM.
The corresponding values for `O=S(=O)(N[C@H]1CC[C@H](CCN2CCC(c3noc4cc(F)ccc34)CC2)CC1)c1ccc(Cl)cc1` [Example 48, 4-Chloro-N-trans (4-{2-[4-(6-fluoro-benzo[d]isoxazol-3-yl)-piperidin-1-yl]-ethyl}-cyclohexyl)-benzenesulfonamide] are 5.13 nM and 5.87 nM.
